Laboratory results reported in US7087392B2, “Antiproliferative SgK reagents and methods” (The Regents of the University of California, priority 1999, dated 2006).

Tests used:
[1] = system: Sgk and Erk/MAPK; assay: Subcellular localization of Sgk and Erk/MAPK in mammary tumor cells; assay type: cell-based; conditions: MEK inhibitor treatment
From the text: Sgk/MAPK interactions: new level of cross talk between GR and phosphorylation cascades. We also observed that the enzymatic activity and subcellular localization of Sgk and the Erk1/Erk2 members of the Mitogen Activated Protein Kinase (MAPK) gene family are co-regulated in a stimulus-dependent manner. […] Wild type or kinase dead forms of Sgk can be co-immunoprecipitated with Erk/MAPK from either serum- or dexamethasone-treated mammary tumor cells. […] Conversely, the forced cellular localization of ectopically expressed Sgk into the nucleus, using the NLS-Sgk, or into the cytoplasmic compartment using the wild type sgk gene, caused Erk/MAPK to co-localize with Sgk.

[2] = system: endogenous Sgk; assay: Phosphorylation state of Sgk in treated cells; assay type: cell-based; conditions: treatment of cells; serum stimulated mammary tumor cells for the PI 3-kinase inhibitors
From the text: Cotransfection of PDK1 with Sgk caused a 6-fold activation of Sgk activity, whereas, the kinase-dead form of PDK1 had no effect. […] The Ser-78 in the amino terminal domain is a third phosphorylation site and expression of the S78G Sgk mutation ablates the presence of the slowest migrating form of phosphorylated Sgk in SDS polyacrylamide gels.

SMILES | subcellular distribution of Sgk and Erk/MAPK [1] | generation of hyperphosphorylated form of Sgk [2]
COc1cccc(-c2cc(=O)c3ccccc3o2)c1N [PD98059] | caused both Sgk and Erk/MAPK to localize to the cytoplasm | –
C=C1[C@@H](O)[C@@H]2O[C@]3(CC[C@H](/C=C/[C@@H](C)[C@@H]4CC(C)=C[C@@]5(O[C@H](C[C@@](C)(O)C(=O)O)CC[C@H]5O)O4)O3)CC[C@H]2O[C@@H]1[C@@H](O)C[C@H](C)[C@H]1O[C@@]2(CCCCO2)CC[C@H]1C [okadaic acid] | – | generates a hyperphosphorylated active Sgk
